Experimental findings from patent publication US20230219956A1 (BETTA PHARMACEUTICALS CO.,LTD, priority 2019, published 2023) are described below.

Test [1] concerns MIA-PACA-2 cells. The test can be described thus: Cell proliferation assay, MIA-PACA-2 cells (Cell-titer Glo). Conditions: Homo sapiens, 96 h incubation. It counts as cell-based. How it is done: (§1) Pave the MIA-PACA-2 cells into a 96-well ultra-low adsorption plate at 600 cells, 160 μL/well. After incubating overnight, compound solutions of gradient concentration was prepared, and added 40 μL of DMSO solution of the test compound of each concentration to the cells of each well. The final concentration of the compound is 10000, 2000, 400, 80, 16, 3.2, 0.64, 0.12, 0.025, 0 nM (the final concentration of DMSO is 0.25%). Incubated for 96 h at 37° C. and 5% CO2. 50 μL of Cell-titer Glo working solution was added to each well, shaked and mixed, and incubated at room temperature for 10 minutes. The multi-functional microplate reader read the luminescence value, and converted the luminescence value reading into inhibition percentage.
(§2) Inhibition percentage=(maximum value−reading)/(maximum value−minimum value)*100.
(§3) The “maximum value” was the DMSO control, the “minimum value” indicates the cell-free control group.
(§4) Graphpad Prism software was used to perform curve fitting and obtain IC50 value.
Refer to Table 3 for the IC50 data of some compounds in the examples inhibiting MIA-PACA-2 cells.

The test system of test [2] is H358 cells. Kind of test: Cell proliferation assay, H358 cells (Cell-titer Glo). Particulars: Homo sapiens, NCI-H358, 96 h incubation. The format is cell-based. As for the experimental part:
as §1, with “the H358” for “the MIA-PACA-2”, “cells on” for “cells into”, “plate with 2000 cells and 190” for “plate at 600 cells, 160”, “added 10” for “added 40”, “10000, 3333.3, 1111.1, 370.4, 123.5, 41.2, 13.7, 4.6, 1.5,” for “10000, 2000, 400, 80, 16, 3.2, 0.64, 0.12, 0.025,”
as §2, §3, §4
Refer to table 3 for the IC50 data of some compounds in the Examples for inhibiting H358 cells.

For the molecule `C=CC(=O)N1CC2(CCN(c3nc(C4CCN(C)CC4)nc4c(OC5CCC5)c(-c5c(C)ccc6[nH]ncc56)c(Cl)cc34)CC2)C1` [Example 33], the IC50 (in general, the concentration needed to halve the response being measured) in test [1] was 42.9 nM; in test [2], 69.7 nM.
For `C=CC(=O)N1CC2(CCN(c3nc(C4CCN(C)CC4)nc4c(OCC(F)F)c(-c5c(C)ccc6[nH]ncc56)c(Cl)cc34)CC2)C1` [Example 34], the IC50 stood at 36.9 nM in test [1] and 39 nM in test [2].
On the same counts, the results for `C=CC(=O)N1CC2(CCN(c3nc(C4CCN(CCOC)CC4)nc4c(OCC(F)(F)F)c(-c5c(C)ccc6[nH]ncc56)c(CC)cc34)CC2)C1` [Example 35, 1-(7-(6-ethyl-2-(1-(2-methoxyethyl)piperidin-4-yl)-7-(5-methyl-1H-indazol-4-yl)-8-(2,2,2-trifluoroethoxy)quinazolin-4-yl)-2,7-diazaspiro[3.5]nonan-2-yl)prop-2-en-1-one] are 10.9 nM and 9.6 nM.
Turning to `C=CC(=O)N1CC2(CCN(c3nc(C4CCN(CC(C)(C)O)CC4)nc4c(OCC(F)(F)F)c(-c5c(C)ccc6[nH]ncc56)c(CC)cc34)CC2)C1` [Example 36, 1-(7-(6-ethyl-2-(1-(2-hydroxy-2-methylpropyl)piperidin-4-yl)-7-(5-methyl-1H-indazol-4-yl)-8-(2,2,2-trifluoroethoxy)quinazolin-4-yl)-2,7-diazaspiro[3.5]nonan-2-yl) prop-2-en-1-one], the 50% inhibitory concentration (IC50) was 10.1 nM in test [1] and 10.6 nM in test [2].
On the same counts, the results for `C=CC(=O)N1CC2(CCN(c3nc(C4CCN(C5COC5)CC4)nc4c(OCC(F)(F)F)c(-c5c(C)ccc6[nH]ncc56)c(CC)cc34)CC2)C1` [Example 37] are 23.4 nM and 18.4 nM.
For the molecule `C=CC(=O)N1CC2(CCN(c3nc(C4CN(CC(C)(C)O)C4)nc4c(OCC(F)(F)F)c(-c5c(C)ccc6[nH]ncc56)c(CC)cc34)CC2)C1` [Example 38, 1-(7-(6-ethyl-2-(1-(2-hydroxy-2-methylpropyl)azetidin-3-yl)-7-(5-methyl-1H-indazol-4-yl)-8-(2,2,2-trifluoroethoxy)quinazolin-4-yl)-2,7-diazaspiro[3.5]nonan 2-yl) prop-2-en-1-one], the half-maximal inhibitory concentration (IC50) came out at 74.2 nM in test [1] and 59.3 nM in test [2].
As for `C=CC(=O)N1CC2(CCN(c3nc(C4CN(CCC#N)C4)nc4c(OCC(F)(F)F)c(-c5c(C)ccc6[nH]ncc56)c(CC)cc34)CC2)C1` [Example 39, 3-(3-(4-(2-acryloyl-2,7-diazaspiro[3.5]nonan-7-yl)-6-ethyl-7-(5-methyl-1H-indazol-4-yl)-8-(2,2,2-trifluoroethoxy)quinazolin-2-yl)azetidin-1-yl)propionitrile], the IC50 in test [1] amounted to 78 nM; in test [2] it was 97.8 nM.
For the molecule `C=CC(=O)N1CC2(CCN(c3nc(C4CN(C5COC5)C4)nc4c(OCC(F)(F)F)c(-c5c(C)ccc6[nH]ncc56)c(CC)cc34)CC2)C1` [Example 40, 1-(7-(6-ethyl-7-(5-methyl-1H-indazole-4-yl)-2-(1-(oxacyclobutan-3-yl)azacyclobutane-3-yl)-8-(2,2,2-trifluoroethoxy)quinazolin-4-yl) 2,7-diazspiro [3.5]nonan-2-yl) propyl-2-en-1-one], the values for the 50% inhibitory concentration (IC50) in test [1] and in test [2] were 47.7 nM and 39 nM, respectively.
On the same counts, the results for `C=CC(=O)N1CC2(CCN(c3nc(C4CN(C5CCOCC5)C4)nc4c(OCC(F)(F)F)c(-c5c(C)ccc6[nH]ncc56)c(CC)cc34)CC2)C1` [Example 42, 1-(7-(6-ethyl-7-(5-methyl-1H-indazole-4-yl)-2-(1-(tetrahydro-2H-pyran-4-yl)azacyclobutane-3-yl)-8-(2,2,2-trifluoroethoxy)quinazolin-4-yl)-2,7-diazspiro [3.5]nonan-2-yl) propyl-2-en-1-one] are 29.6 nM and 19.6 nM.
On the same counts, the results for `C=CC(=O)N1CC2(CCN(c3nc(C4CN(C5CCC5)C4)nc4c(OCC(F)(F)F)c(-c5c(C)ccc6[nH]ncc56)c(CC)cc34)CC2)C1` [Example 43, 1-(7-(2-(1-cyclobutylazocyclobutane-3-yl)-6-ethyl-7-(5-methyl-1H-indazole-4-yl)-8-(2,2,2-trifluoroethoxy)quinazolin-4-yl)-2,7-diazarospiro [3.5]nonan-2-yl) propyl-2-en-1-one] are 378 nM and 315 nM.
On the same counts, the results for `C=CC(=O)N1CC2(CCN(c3nc(C4CN(C5CCCC5)C4)nc4c(OCC(F)(F)F)c(-c5c(C)ccc6[nH]ncc56)c(CC)cc34)CC2)C1` [Example 44, 1-(7-(2-(1-cyclopentyl-azacyclobutane-3-yl)-6-ethyl-7-(5-methyl-1H-indazole-4-yl)-8-(2,2,2-trifluoroethoxy)quinazolin-4-yl)-2,7-diazarospiro [3.5]nonan-2-yl) propyl-2-en-1-one] are 169 nM and 155 nM.
With `C=CC(=O)N1CC2(CCN(c3nc(C4CN(C(=O)C5CC5)C4)nc4c(OCC(F)(F)F)c(-c5c(C)ccc6[nH]ncc56)c(CC)cc34)CC2)C1` [Example 45, 1-(7-(2-(1-(Cyclopropanecarbonyl)azacyclobutane-3-yl)-6-ethyl-7-(5-methyl-1H-indazol-4-yl)-8-(2,2,2-trifluoroethoxy)quinazolin-4-yl)-2,7-diazaspo [3.5]nonan-2-yl) propyl-2-en-1-one], the concentration for half-maximal inhibition (IC50) was 778 nM in test [1] and 466 nM in test [2].
Regarding `C=CC(=O)N1CC2(CCN(c3nc(C4CN(CC)C4)nc4c(OCC(F)(F)F)c(-c5c(C)ccc6[nH]ncc56)c(CC)cc34)CC2)C1` [Example 46, 1-(7-(6-ethyl-2-(1-ethyl-azacyclobutane-3-yl)-7-(5-methyl-1H-indazole-4-yl)-8-(2,2,2-trifluoroethoxy)quinazolin-4-yl)-2,7-diazarospiro [3.5]nonan-2-yl) propyl-2-en-1-one], the IC50 in test [1] was 34 nM; in test [2], 37 nM.
For the molecule `C=CC(=O)N1CC2(CCN(c3nc(C4CCN(C)CC4)nc4c(OCC(C)(C)O)c(-c5c(C)ccc6[nH]ncc56)c(C=C)cc34)CC2)C1` [Example 47, 1-(7-(8-(2-hydroxy-2-methylpropoxy)-7-(5-methyl-1H-indazol-4-yl)-2-(1-methylpiperidin-4-yl)-6-vinylquinazoline-4-yl)-2,7-diazaspiro[3.5]nonan-2-yl)prop-2-en-1-one], the IC50 turned out to be 47.7 nM in test [1] and 39 nM in test [2].
On the same counts, the results for `C=CC(=O)N1CC2(CCN(c3nc(C4CCN(C)CC4)nc4c(OCC(F)F)c(-c5c(C)ccc6[nH]ncc56)c(C=C)cc34)CC2)C1` [Example 48, 1-(7-(8-(2,2-difluoroethoxy)-7-(5-methyl-1H-indazol-4-yl)-2-(1-methylpiperidin-4-yl)-6-vinylquinazolin-4-yl)-2,7-diazspiro [3.5]nonan-2-yl) propyl-2-en-1-one] are 9.8 nM and 11.5 nM.
On the same counts, the results for `C=CC(=O)N1CC2(CCN(c3nc(C4CCN(C)CC4)nc4c(OCC5(C#N)CC5)c(-c5c(C)ccc6[nH]ncc56)c(C=C)cc34)CC2)C1` [Example 49] are 9.8 nM and 11.5 nM.
With `C=CC(=O)N1CC2(C1)CN(c1nc(C3CCN(C)CC3)nc3c(OCC(F)(F)F)c(-c4c(C)ccc5[nH]ncc45)c(C=C)cc13)C2` [Example 50, 1-(6-(7-(5-methyl-1H-indazol-4-yl)-2-(1-methylpiperidin-4-yl)-8-(2,2,2-trifluoroethoxy)-6-vinylquinazolin-4-yl)-2,6-diazaspiro[3.3]heptane-2-yl)prop-2-en-1-one], the figures for the IC50 in test [1] and in test [2] were 278 nM and 243 nM, respectively.
